Data on 4 compounds can be found in US5258386A (priority 1991, dated 1993).

The conditions of data set [1]: in vivo; cited from earlier work.
Data set [2] deals with maximal electroshock seizures (MES). The data set is described as follows: Maximal electroshock seizure (MES) assay in rats, s.c. injection, tonic hindlimb extension (THE). As to conditions: for % Responding (THE): s.c.; for ED50: sc, read-out: Anticonvulsant ED50. The class given is in vivo, Male Sprague-Dawley rats. The procedure: The anticonvulsant activity of the present compounds was assessed by the method of inducing maximal electroshock seizures (MES) in rats using the standard testing protocol conditions hereinafter described:
Animals. Male Sprague-Dawley rats weighing 200-250 g obtained from Zivic Miller Laboratories, Alison Park, Pa., were used for all experiments. Upon delivery the animals were kept in individual pens housed in a temperature controlled laboratory. A standard 12-hour light-dark cycle was maintained. The animals were given food and water ad libitum.
Maximal electroshock seizure (MES) assay. Supramaximal (tonic hindlimb extension) seizures were induced in test rats by means of an electric shock apparatus. A current of 60 Hz and 50 mA was delivered transauricularly through miniature alligator clips attached to the pinna of each ear for 2.0 seconds. […] In general, MES causes a generalized convulsion characterized by an initial tonic forelimb extension (TFE) progressing immediately to tonic hindlimb extension (THE) followed by clonic jerking. The presence or absence of THE was recorded for each MES convulsion.
Experimental protocol. Two groups of animals with n=10 for each group were tested under the conditions described above. Compounds were administered to each test animal by a single subcutaneous injection. There were no signs of overt sedation, ataxia or motor impairment at any time during the MES assay after drug injection.

The conditions of data set [3]: U.S. Pat. No. 4,552,962; cited from earlier work.
For data set [4] the following is noted: U.S. Pat. Nos. 4,898,860 and 4,906,638; cited from earlier work.
Data set [5] can be described thus: Proconvulsant activity of dextromethorphan. As to conditions: doses above about 60 mg/kg, in mammals.
The conditions of data set [6]: elevated doses; cited from earlier work.
For data set [7] the following is noted: in vivo, demethylation; dextrorphan is the major metabolite in man; cited from earlier work.
The conditions of data set [8]: in vivo; cited from earlier work. The source holds these as a separate data set.

SMILES strings stand for the structures.

As to `COc1ccc2c(c1)[C@@]13CCCC[C@H]1[C@@H](C2)N(C)CC3` [Compound 1, (+)-3-methoxy-N-methylmorphinan], in data set [1], the anticonvulsant activity result is given as “not very potent as an anticonvulsant agent”. The “% Responding (THE)” value in data set [2] (15 mg/kg, rat MES) stood at 70%; in data set [2] (30 mg/kg, rat MES), 70%; in data set [2] (60 mg/kg, rat MES) it was 30%. For the same compound, the inhibits seizures result in data set [2] (about 60 mg/kg) is “about 70%”. The ED50 in data set [2] (rat MES, single s.c. injection) is 38 mg/kg. Further, the antitussive activity result in data set [3] was “potent antitussive agent”. Moreover, the “potentiating effect on antiepileptic or antiseizure compounds” value in data set [4] is “potentiating effect”. The proconvulsant activity result in data set [5] is recorded as “exhibits proconvulsant activity”. The proconvulsant result in data set [6] is given as “becomes proconvulsant”. The metabolism to dextrorphan result in data set [7] was “metabolizes rapidly by demethylation in vivo”.
For the compound `CN1CC[C@]23CCCC[C@H]2[C@H]1Cc1ccc(O)cc13` [Compound 2, (+)-3-hydroxy-N-methylmorphinan], the anticonvulsant activity result in data set [1] is listed as “some anticonvulsant activity”. In data set [2] (rat MES, single s.c. injection), the “Anticonvulsant ED50” value was 5 mg/kg. Moreover, the behavioral side effects entry in data set [8] was “harmful behavioral side effects”.
Regarding `CN1CC[C@]23CCCC[C@H]2[C@H]1Cc1ccc(N)cc13.Cl.Cl` [Compound 5, (+)-3-Amino-17-methylmorphinan di-HCl], the “% Responding (THE)” value in data set [2] (12.5 mg/kg, rat MES) is 100%; in data set [2] (25 mg/kg, rat MES) it was 40%. Also, in data set [2] (rat MES, single s.c. injection), the ED50 worked out at 25 mg/kg.
Regarding `CN(C)c1ccc2c(c1)C13CCCCC1C(C2)N(C)CC3` (single isomer, unassigned; (+)) [Compound 7, (+)-3,3-Dimethylamino-17-methylmorphinan sesquitartrate], the “% Responding (THE)” value in data set [2] (25 mg/kg, rat MES) was determined as 65%. For the same compound, in data set [2] (rat MES, single s.c. injection), the ED50 is over 25 mg/kg.
